Laboratory results: ChEMBL document CHEMBL3734667 (Bioorg Med Chem, 2015)

System: not listed separately
Experiment: Cytotoxicity against human MT4 cells assessed as cell viability after 96 hrs by MTT assay
Type: cell-based
Settings: not given
With `CC(C)(Oc1ccc(-n2nc3ccccc3n2)cc1)C(=O)O` the CC50 at 96 h was > 100 µM. In the case of `Clc1cc2nn(Cc3ccccc3)nc2cc1Cl`, the CC50 at 96 h is reported as > 100 µM. For `[O-][n+]1c2cc(C(F)(F)F)ccc2nn1-c1ccc(O)cc1`, the CC50 at 96 h was > 100 µM. With `COc1ccc(Cn2nc3ccc(C(F)(F)F)cc3n2)cc1` the CC50 at 96 h was > 100 µM.

System: not listed separately
Experiment: Cytotoxicity against MDBK cells assessed as cell viability after 48 to 96 hrs by MTT assay
Type: cell-based, Bos taurus
Settings: cattle
In the case of `NC(=O)c1ncn([C@@H]2O[C@H](CO)[C@@H](O)[C@H]2O)n1` [RIBAVIRIN], the CC50 is reported as > 100 µM. With `CC(C)(Oc1ccc(-n2nc3ccccc3n2)cc1)C(=O)O` the CC50 was > 100 µM. For `Clc1cc2nn(Cc3ccccc3)nc2cc1Cl`, the CC50 was > 100 µM. `[O-][n+]1c2cc(C(F)(F)F)ccc2nn1-c1ccc(O)cc1` gave a CC50 of 72 µM. In the case of `COc1ccc(Cn2nc3ccc(C(F)(F)F)cc3n2)cc1`, the CC50 is reported as > 100 µM.

System: not listed separately
Experiment: Cytotoxicity against BHK cells assessed as cell viability after 48 to 96 hrs by MTT assay
Type: cell-based, Mesocricetus auratus
Settings: hamster
In the case of `NC(=O)c1ncn([C@@H]2O[C@H](CO)[C@@H](O)[C@H]2O)n1` [RIBAVIRIN], the CC50 is reported as > 100 µM. With `COc1c(C)c2c(c(O)c1C/C=C(\C)CCC(=O)O)C(=O)OC2` [MYCOPHENOLIC ACID] the CC50 was > 100 µM. With `CC(C)(Oc1ccc(-n2nc3ccccc3n2)cc1)C(=O)O` the CC50 was > 100 µM. For `Clc1cc2nn(Cc3ccccc3)nc2cc1Cl`, the CC50 was > 100 µM. In the case of `[O-][n+]1c2cc(C(F)(F)F)ccc2nn1-c1ccc(O)cc1`, the CC50 is reported as > 100 µM. With `COc1ccc(Cn2nc3ccc(C(F)(F)F)cc3n2)cc1` the CC50 was > 100 µM.

System: not listed separately
Experiment: Cytotoxicity against african green monkey Vero 76 cells assessed as cell viability after 48 to 96 hrs by crystal violet staining method
Type: cell-based
Settings: chlorocebus sabaeus
In the case of `NC(=O)c1ncn([C@@H]2O[C@H](CO)[C@@H](O)[C@H]2O)n1` [RIBAVIRIN], the CC50 is reported as > 100 µM. In the case of `CC(C)(Oc1ccc(-n2nc3ccccc3n2)cc1)C(=O)O`, the CC50 is reported as ≥ 100 µM. For `Clc1cc2nn(Cc3ccccc3)nc2cc1Cl`, the CC50 was > 100 µM. In the case of `[O-][n+]1c2cc(C(F)(F)F)ccc2nn1-c1ccc(O)cc1`, the CC50 is reported as > 100 µM. For `COc1ccc(Cn2nc3ccc(C(F)(F)F)cc3n2)cc1`, the CC50 was > 100 µM.

System: Bovine viral diarrhea virus 1
Experiment: Antiviral activity against BVDV infected in MDBK cells assessed as inhibition of virus-induced cytopathogenicity after 3 to 4 days by MTT assay
Type: functional, organism-based
Settings: Bovine viral diarrhea virus isolates and strains
With `COc1c(C)c2c(c(O)c1C/C=C(\C)CCC(=O)O)C(=O)OC2` [MYCOPHENOLIC ACID] the EC50 was > 100 µM. With `CC(C)(Oc1ccc(-n2nc3ccccc3n2)cc1)C(=O)O` the EC50 was > 100 µM. With `Clc1cc2nn(Cc3ccccc3)nc2cc1Cl` the EC50 was > 100 µM. With `[O-][n+]1c2cc(C(F)(F)F)ccc2nn1-c1ccc(O)cc1` the EC50 was > 100 µM. With `COc1ccc(Cn2nc3ccc(C(F)(F)F)cc3n2)cc1` the EC50 was > 100 µM.

System: Yellow fever virus
Experiment: Antiviral activity against YFV infected in BHK-21 cells assessed as inhibition of virus-induced cytopathogenicity after 3 to 4 days by MTT assay
Type: functional, organism-based
Settings: not given
With `NC(=O)c1ncn([C@@H]2O[C@H](CO)[C@@H](O)[C@H]2O)n1` [RIBAVIRIN] the EC50 was > 100 µM. With `COc1c(C)c2c(c(O)c1C/C=C(\C)CCC(=O)O)C(=O)OC2` [MYCOPHENOLIC ACID] the EC50 was > 100 µM. In the case of `CC(C)(Oc1ccc(-n2nc3ccccc3n2)cc1)C(=O)O`, the EC50 is reported as > 100 µM. With `Clc1cc2nn(Cc3ccccc3)nc2cc1Cl` the EC50 was > 100 µM. For `[O-][n+]1c2cc(C(F)(F)F)ccc2nn1-c1ccc(O)cc1`, the EC50 was > 100 µM. For `COc1ccc(Cn2nc3ccc(C(F)(F)F)cc3n2)cc1`, the EC50 was > 100 µM.

System: Mammalian orthoreovirus 1
Experiment: Antiviral activity against Reo-1 virus infected in BHK-21 cells assessed as inhibition of virus-induced cytopathogenicity after 3 to 4 days by MTT assay
Type: functional, cell-based
Settings: Mammalian orthoreovirus 1, BHK-21
In the case of `NC(=O)c1ncn([C@@H]2O[C@H](CO)[C@@H](O)[C@H]2O)n1` [RIBAVIRIN], the EC50 is reported as > 100 µM. For `COc1c(C)c2c(c(O)c1C/C=C(\C)CCC(=O)O)C(=O)OC2` [MYCOPHENOLIC ACID], the EC50 was > 100 µM. For `Clc1cc2nn(Cc3ccccc3)nc2cc1Cl`, the EC50 was > 100 µM. For `[O-][n+]1c2cc(C(F)(F)F)ccc2nn1-c1ccc(O)cc1`, the EC50 was > 100 µM. In the case of `COc1ccc(Cn2nc3ccc(C(F)(F)F)cc3n2)cc1`, the EC50 is reported as > 100 µM.

System: Coxsackievirus B5
Experiment: Antiviral activity against human CVB5 infected in african green monkey Vero76 cells assessed as inhibition of virus-induced cytopathogenicity after 3 days by plaque reduction assay
Type: functional, organism-based
Settings: Enterovirus B, Vero 76, 72 h
For `NC(=O)c1ncn([C@@H]2O[C@H](CO)[C@@H](O)[C@H]2O)n1` [RIBAVIRIN], the EC50 was > 100 µM. With `COc1c(C)c2c(c(O)c1C/C=C(\C)CCC(=O)O)C(=O)OC2` [MYCOPHENOLIC ACID] the EC50 was > 100 µM. With `CC(C)(Oc1ccc(-n2nc3ccccc3n2)cc1)C(=O)O` the EC50 was > 100 µM. With `Clc1cc2nn(Cc3ccccc3)nc2cc1Cl` the EC50 was > 100 µM. `[O-][n+]1c2cc(C(F)(F)F)ccc2nn1-c1ccc(O)cc1` gave an EC50 of 75 µM. With `COc1ccc(Cn2nc3ccc(C(F)(F)F)cc3n2)cc1` the EC50 was > 100 µM.

System: Human orthopneumovirus
Experiment: Antiviral activity against human RSV infected in african green monkey Vero76 cells assessed as inhibition of virus-induced cytopathogenicity after 5 days by plaque reduction assay
Type: functional, organism-based
Settings: human respiratory syncytial virus, Vero 76, 120 h
With `NC(=O)c1ncn([C@@H]2O[C@H](CO)[C@@H](O)[C@H]2O)n1` [RIBAVIRIN] the EC50 was 7 µM. In the case of `COc1c(C)c2c(c(O)c1C/C=C(\C)CCC(=O)O)C(=O)OC2` [MYCOPHENOLIC ACID], the EC50 is reported as 0.6 µM. `CC(C)(Oc1ccc(-n2nc3ccccc3n2)cc1)C(=O)O` showed an EC50 of 80 µM. For `Clc1cc2nn(Cc3ccccc3)nc2cc1Cl`, the EC50 was > 100 µM. `[O-][n+]1c2cc(C(F)(F)F)ccc2nn1-c1ccc(O)cc1` showed an EC50 of 40 µM. In the case of `COc1ccc(Cn2nc3ccc(C(F)(F)F)cc3n2)cc1`, the EC50 is reported as > 100 µM.

System: Poliovirus 1
Experiment: Antiviral activity against Human poliovirus 1 Sabin infected in african green monkey Vero76 cells assessed as inhibition of virus-induced cytopathogenicity by plaque reduction assay
Type: functional, organism-based
Settings: Enterovirus C, Vero 76
In the case of `NC(=O)c1ncn([C@@H]2O[C@H](CO)[C@@H](O)[C@H]2O)n1` [RIBAVIRIN], the EC50 is reported as > 100 µM. With `COc1c(C)c2c(c(O)c1C/C=C(\C)CCC(=O)O)C(=O)OC2` [MYCOPHENOLIC ACID] the EC50 was > 100 µM. For `CC(C)(Oc1ccc(-n2nc3ccccc3n2)cc1)C(=O)O`, the EC50 was > 100 µM. With `Clc1cc2nn(Cc3ccccc3)nc2cc1Cl` the EC50 was > 100 µM. In the case of `[O-][n+]1c2cc(C(F)(F)F)ccc2nn1-c1ccc(O)cc1`, the EC50 is reported as > 100 µM. In the case of `COc1ccc(Cn2nc3ccc(C(F)(F)F)cc3n2)cc1`, the EC50 is reported as > 100 µM.

System: not listed separately
Experiment: Selectivity index, ratio of CC50 for african green monkey Vero76 cells to EC50 for human CVB5
Set-up: species or system Coxsackievirus B5, Vero 76
Settings: not given
In the case of `[O-][n+]1c2cc(C(F)(F)F)ccc2nn1-c1ccc(O)cc1`, the “Ratio CC50/EC50” value is reported as >1.33.

System: not listed separately
Experiment: Selectivity index, ratio of CC50 for african green monkey Vero76 cells to EC50 for human RSV
Set-up: species or system human respiratory syncytial virus, Vero 76
Settings: not given
In the case of `NC(=O)c1ncn([C@@H]2O[C@H](CO)[C@@H](O)[C@H]2O)n1` [RIBAVIRIN], the “Ratio CC50/EC50” value is reported as >14.3. With `COc1c(C)c2c(c(O)c1C/C=C(\C)CCC(=O)O)C(=O)OC2` [MYCOPHENOLIC ACID] the “Ratio CC50/EC50” value was 33.3. In the case of `CC(C)(Oc1ccc(-n2nc3ccccc3n2)cc1)C(=O)O`, the “Ratio CC50/EC50” value is reported as 1.25. With `[O-][n+]1c2cc(C(F)(F)F)ccc2nn1-c1ccc(O)cc1` the “Ratio CC50/EC50” value was >2.5.

System: Human immunodeficiency virus 1
Experiment: Antiviral activity against HIV-1 infected in MT4 cells assessed as inhibition of virus-induced cytopathogenicity after 4 days by MTT assay
Type: functional, organism-based
Settings: Human immunodeficiency virus 1, MT4, 96 h
With `CC(C)(Oc1ccc(-n2nc3ccccc3n2)cc1)C(=O)O` the EC50 was > 100 µM. For `Clc1cc2nn(Cc3ccccc3)nc2cc1Cl`, the EC50 was > 100 µM. With `[O-][n+]1c2cc(C(F)(F)F)ccc2nn1-c1ccc(O)cc1` the EC50 was > 100 µM. In the case of `COc1ccc(Cn2nc3ccc(C(F)(F)F)cc3n2)cc1`, the EC50 is reported as > 100 µM.

System: Human alphaherpesvirus 1
Experiment: Antiviral activity against HSV1
Type: functional, organism-based
Settings: not given
With `NC(=O)c1ncn([C@@H]2O[C@H](CO)[C@@H](O)[C@H]2O)n1` [RIBAVIRIN] the EC50 was > 100 µM. In the case of `COc1c(C)c2c(c(O)c1C/C=C(\C)CCC(=O)O)C(=O)OC2` [MYCOPHENOLIC ACID], the EC50 is reported as > 100 µM. With `Clc1cc2nn(Cc3ccccc3)nc2cc1Cl` the EC50 was > 100 µM. In the case of `COc1ccc(Cn2nc3ccc(C(F)(F)F)cc3n2)cc1`, the EC50 is reported as > 100 µM.

System: Vesicular stomatitis virus
Experiment: Antiviral activity against VSV
Type: functional, organism-based
Settings: not given
For `NC(=O)c1ncn([C@@H]2O[C@H](CO)[C@@H](O)[C@H]2O)n1` [RIBAVIRIN], the EC50 was > 100 µM. In the case of `CC(C)(Oc1ccc(-n2nc3ccccc3n2)cc1)C(=O)O`, the EC50 is reported as > 100 µM. In the case of `Clc1cc2nn(Cc3ccccc3)nc2cc1Cl`, the EC50 is reported as > 100 µM. For `[O-][n+]1c2cc(C(F)(F)F)ccc2nn1-c1ccc(O)cc1`, the EC50 was > 100 µM. For `COc1ccc(Cn2nc3ccc(C(F)(F)F)cc3n2)cc1`, the EC50 was > 100 µM.

System: Vaccinia virus
Experiment: Antiviral activity against Vaccinia virus
Type: functional, organism-based
Settings: Orthopoxvirus vaccinia
In the case of `NC(=O)c1ncn([C@@H]2O[C@H](CO)[C@@H](O)[C@H]2O)n1` [RIBAVIRIN], the EC50 is reported as > 100 µM. Compound `COc1c(C)c2c(c(O)c1C/C=C(\C)CCC(=O)O)C(=O)OC2` [MYCOPHENOLIC ACID] has an EC50 of 2 µM. With `CC(C)(Oc1ccc(-n2nc3ccccc3n2)cc1)C(=O)O` the EC50 was > 100 µM. In the case of `Clc1cc2nn(Cc3ccccc3)nc2cc1Cl`, the EC50 is reported as > 100 µM. With `[O-][n+]1c2cc(C(F)(F)F)ccc2nn1-c1ccc(O)cc1` the EC50 was > 100 µM. With `COc1ccc(Cn2nc3ccc(C(F)(F)F)cc3n2)cc1` the EC50 was > 100 µM.
